How the values were obtained:
HeLa cells [1] = test: Tumor cell proliferation inhibitory activity, Alarmer Blue staining, HeLa cells; format: cell-based, human; conditions: conclusion from FIGS. 4-6 (Vero, HeLa, fibroblasts)
Experimental: Here, Vero was […] derived from the kidney of a grivet, and HeLa was a tumor cell line derived from human cervix.
These cells were grown in FCS-MRM medium. The respective cells were trypsinized and washed with a FCS-free RPMI culture medium three times. The cell density was adjusted to 50,000 cells/ml prior to the test. Each 200 μl of cell suspension was dropped into a 96-well plain-bottom plate.
After one day, the culture medium was aspirated; and 200 μl of an active component solution was dropped into test wells, and 200 μl of DMSO dropped into control wells. The plate was incubated in a 5% CO2 atmosphere at 37° C. for 3 days. Ten μl of Alarmer Blue (staining agent) was added to each well, and incubation continued for additional 3 hrs. The tumor cell proliferation inhibitory activity was determined spectrophotometrically (570 and 600 nm) according to the following equation:
Eq. Proliferation inhibitory activity=100%−[(absorbance of test well)/(absorbance of control well)×100%]

HeLa cells [2] = test: DNA cleavage examined against HeLa cells (chromatin aggregation, agarose gel electrophoresis); format: cell-based, human; conditions: conclusion from FIGS. 7-9
Experimental: HeLa cells were prepared, adjusted to a cell density of 1×10^6 cells/ml in a φ10 cm culture dish and grown, into which 200 μl of the active fraction solution was dropped. Cells were harvested each 50 μl after 24, 48, and 72 hrs, and incubated in 400 μl of culture solution (containing Tris-EDTA, SDS and Proteinase K) in a 5% CO2 atmosphere at 37° C. overnight. NaCl was added to the cells and decomposed proteins were centrifuged; and the supernatant was precipitated in ethanol.
The precipitate was suspended in Tris-EDTA buffer containing RnaseA. After 2 hrs, it was loaded onto agarose gel. After staining with ethidium bromide, it was electrophoresed and visualized under UV irradiation.

CC(=O)OC1CC2(C)C(C(C)/C=C/C(C)C(C)C)CCC2(C)C2CC(O)C3(O)CC(O)CC(=O)C3(C)C12 (centres unmarked) [compound (II)]
proliferation inhibitory activity specific to tumor cells (overall conclusion) (HeLa cells [1]): remarkable proliferation inhibitory activity specific to tumor cells
induction of apoptosis in the tumor cells (HeLa cells [2]): induces apotosis

Source: US6465447B1, “Substance having steroid-like structure, process for the production thereof and antitumor agents containing the same” (Hisamitsu Pharmaceuticals Co., Inc., priority 1998, dated 2002)
